Results taken from publication PMC6813295, “A tumour-selective cascade activatable self-detained system for drug delivery and cancer imaging” (Nature Communications, 2019).
Where a SMILES comes first, the peptide text is derived from it. The star is where a group is joined. X1 = CC1(C)C(=CC=C2CCCC(C=CC3=[N+](CCCCCC(=O)O)c4ccccc4C3(C)C)=C2*)N(CCCCCC(=O)O)c2ccccc21

Legend:
[1] = assay type: physicochemical
Procedure: microscopy (UltraVIEW VoX).
H460 cells (1 x 10^5 cells per well) were seeded in a confocal microscopy dish (MatTek). After culture for 24 h, the cells were treated with P7 (XIAP inhibitor) (50 μM) or […] (caspase inhibitor) (10 μM) for 3 h and followed by PBS washing. And then the molecule 1 (50 μM) and 2 (50 μM) were individually added for 1 h and followed by PBS washing and fresh medium replacement.
After further 6 h of incubation, the cells were washed twice by PBS and stained with bisBenzimide H 33342 trihydrochloride (Hoechst 33342) (1 mg ml-1; Life Technologies) at 37 °C for 10 min. […]
[Cy]0 is the initial concentration of the molecule 1 or 4, [Cy]t is the concentration of the molecule 1 or […] after the irradiation of t min. Based on Beer rule, it has the linear relation between the concentration of the molecule 1 or 4 and the absorbance in maximal wavelength for the low concentration cyanine dye. […]
A0 is the absorbance in maximal wavelength before the irradiation, and At is the absorbance in maximal wavelength after the irradiation. […]
The pathway of molecule 1 entering cells. […] Subsequently, H460 cells were treated with molecule 1 (50 uM), after 2 h of incubation at 37 ℃ the medium was removed and the cells were washed three times with PBS and analysed by confocal laser scanning […]

[2] = test system: healthy female Balb/c nude mice; experiment: Toxicology evaluation (blood biochemistry, haematology, histology); assay type: in vivo, mouse; conditions: 14 mg/kg
Procedure: The healthy female Balb/c nude mice (6–8 weeks, n = 3) treated with molecule 1 was systematically investigated over 15 days. The mice were sacrificed after treatment with molecule 1 at a dose of 14 mg/kg on the 3rd, 7th and 15th day for blood collection. The blood biochemistry and haematology analyses were performed by Vital River Laboratory Animal Technology Co. Ltd. The histology evaluation was performed by Servicebio. All the toxicology evaluation was carried out in blind manner. […]
mg/kg, n=3) at 3, 7 and 15 d. The control group was healthy mice group without treatment. a, As major indicators of liver function, alanine aminotransferase (ALT), alkaline phosphatase (ALP) and aspartate aminotransferase (AST) levels were evaluated at different time point s. b, Total Protein (TP), albumin (ALB) and globulin (GLO) concentration and A/G (ALB/GLO) levels were evaluated at different time points. c, The creatinine (CRE) and blood urea nitrogen (BUN) levels, important indicators of kidney function, were evaluated at different time points. d, Time-course changes of haematology data, including i) white blood cells, ii) red blood cells, iii) haemoglobin, iv) mean corpuscular volume, v) mean corpuscular haemoglobin, vi) mean corpuscular haemoglobin concentration, vii) platelets and viii) haematocrit after treated with molecule 1 (14 mg/kg) treatment comparing with normal range (green backgrounds). Data are presented as mean ± s.d.
(n=3). e, Histology evaluation of the major organs (liver, spleen, kidney, heart and lung) were collected from the control group without treatment and molecule 1 treated (12 h post injection) group. Scale bars, 100 μm.

CC[C@H](C)[C@H](NC(=O)[C@@H]1CCCN1C(=O)[C@@H](NC(=O)[C@H](C)N)C(C)C)C(=O)N[C@@H](C)C(=O)N[C@@H](CCC(N)=O)C(=O)N[C@@H](CCCCN)C(=O)N[C@@H](CC(=O)O)C(=O)N[C@@H](CCC(=O)O)C(=O)N[C@H](C(=O)N[C@@H](CC(=O)O)C(=O)N[C@@H](CCCCN)C(=O)N[C@@H](CC(C)C)C(=O)N[C@H](C(=O)N[C@@H](Cc1ccccc1)C(=O)N[C@@H](Cc1ccccc1)C(=O)N[C@@H](C)C(=O)N[C@@H](CCC(=O)O)C(=O)N[C@@H](CSC1=C(C=CC2=[N+](CCCCCC(=O)O)c3ccccc3C2(C)C)CCCC1=CC=C1N(CCCCCC(=O)O)c2ccccc2C1(C)C)C(=O)NCC(=O)O)C(C)C)C(C)C [molecule 1] (H-AVPIAQKDEVDKLVFFAEC(X1)G-OH)
photobleaching after irradiation for 6 h ([1]; irradiation 6 h, pure water, Suppl. Fig. 16: xenon flash lamp, 5 μM in PBS buffer 10 mM pH 7.4, r.t., absorbance at 780 nm): 42%
photodegradation rate of molecule 1 relative to that of 4 ([1]; rate constants k from ln(A0/At) = kt, tested in parallel): 7.5 fold
histology evaluation of organs [2]: slightly enlarged splenic corpuscle and expanded germinal centres
signs of acute toxicity within 15 days [2]: did not notice any obvious signs of acute toxicity
creatinine (CRE) and blood urea nitrogen (BUN) levels ([2]; days 3, 7 and 15, n = 3): within the normal range
liver function markers (ALT, AST, ALP, albumin concentration) ([2]; days 3, 7 and 15, n = 3): within reference normal ranges
